Assay results taken from article PMC11445708 (Dalton transactions (Cambridge, England : 2003), 2024).

Tested on: mouse neuroblastoma N2a cells
Assay: Rescue of Aβ42-induced neurotoxicity in N2a cells
Assay type: cell-based
Settings: N2a cells treated with Aβ42 and compound

COc1cc(/C=C/C(=O)CC(=O)/C=C/c2ccc(O)c(OC)c2)ccc1O [curcumin]
effect on Aβ42-induced neurotoxicity: dramatically increased the Aβ-induced cytotoxicity
